Laboratory results taken from the supplement of paper PMC11451515.

Tested on: NOMO1
Test: cell viability relative to DMSO control; higher = less cytotoxic
Details: 48 h
Method in brief: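 Viability values are per-plate percentages of DMSO wells, with background from cell-free wells. Library compounds in DMSO were pin-dosed, in an 11-point threefold series from 47 μM to 0.79 nM, onto NOMO1 or SEM (500 cells/well) or P12-Ichikawa (1000 cells/well) leukemia cells in 1536-well plates (5 μl). Those cells had been adapted for at least four passages in each medium, and CellTiter-Glo One luminescence was read after 48 h at 37°C.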

[1] = HPLM + 10% dialyzed FBS, 0.000781 µM
[2] = HPLM + 10% dialyzed FBS, 0.00234 µM
[3] = HPLM + 10% dialyzed FBS, 0.00702 µM
[4] = HPLM + 10% dialyzed FBS, 0.0211 µM
[5] = HPLM + 10% dialyzed FBS, 0.0632 µM
[6] = HPLM + 10% dialyzed FBS, 0.19 µM
[7] = HPLM + 10% dialyzed FBS, 0.569 µM
[8] = HPLM + 10% dialyzed FBS, 1.71 µM
[9] = HPLM + 10% dialyzed FBS, 5.12 µM
[10] = HPLM + 10% dialyzed FBS, 15.4 µM
[11] = HPLM + 10% dialyzed FBS, 46.1 µM
[12] = RPMI 5 mM glucose + 10% FBS, 0.000781 µM
[13] = RPMI 5 mM glucose + 10% FBS, 0.00234 µM
[14] = RPMI 5 mM glucose + 10% FBS, 0.00702 µM
[15] = RPMI 5 mM glucose + 10% FBS, 0.0211 µM
[16] = RPMI 5 mM glucose + 10% FBS, 0.0632 µM
[17] = RPMI 5 mM glucose + 10% FBS, 0.19 µM
[18] = RPMI 5 mM glucose + 10% FBS, 0.569 µM
[19] = RPMI 5 mM glucose + 10% FBS, 1.71 µM
[20] = RPMI 5 mM glucose + 10% FBS, 5.12 µM
[21] = RPMI 5 mM glucose + 10% FBS, 15.4 µM
[22] = RPMI 5 mM glucose + 10% FBS, 46.1 µM
[23] = RPMI 5 mM glucose + 10% dialyzed FBS, 0.000781 µM
[24] = RPMI 5 mM glucose + 10% dialyzed FBS, 0.00234 µM
[25] = RPMI 5 mM glucose + 10% dialyzed FBS, 0.00702 µM
[26] = RPMI 5 mM glucose + 10% dialyzed FBS, 0.0211 µM
[27] = RPMI 5 mM glucose + 10% dialyzed FBS, 0.0632 µM
[28] = RPMI 5 mM glucose + 10% dialyzed FBS, 0.19 µM
[29] = RPMI 5 mM glucose + 10% dialyzed FBS, 0.569 µM
[30] = RPMI 5 mM glucose + 10% dialyzed FBS, 1.71 µM
[31] = RPMI 5 mM glucose + 10% dialyzed FBS, 5.12 µM
[32] = RPMI 5 mM glucose + 10% dialyzed FBS, 15.4 µM
[33] = RPMI 5 mM glucose + 10% dialyzed FBS, 46.1 µM

Structure (SMILES): CCc1c(O)cc(O)c(C(=O)c2ccc(OCCN3CCOCC3)c(OC)c2)c1CC(=O)N(CCOC)CCOC
- cell viability [1]: 102%
- cell viability [2]: 106%
- cell viability [3]: 117%
- cell viability [4]: 127%
- cell viability [5]: 127%
- cell viability [6]: 119%
- cell viability [7]: 114%
- cell viability [8]: 80.7%
- cell viability [9]: 21.2%
- cell viability [10]: 13.7%
- cell viability [11]: 11.6%
- cell viability [12]: 101%
- cell viability [13]: 101%
- cell viability [14]: 113%
- cell viability [15]: 106%
- cell viability [16]: 118%
- cell viability [17]: 124%
- cell viability [18]: 109%
- cell viability [19]: 93.4%
- cell viability [20]: 21.6%
- cell viability [21]: 12.3%
- cell viability [22]: 11.3%
- cell viability [23]: 115%
- cell viability [24]: 114%
- cell viability [25]: 114%
- cell viability [26]: 108%
- cell viability [27]: 114%
- cell viability [28]: 106%
- cell viability [29]: 102%
- cell viability [30]: 98.8%
- cell viability [31]: 28.2%
- cell viability [32]: 16.4%
- cell viability [33]: 14.1%

Structure (SMILES): CCOC(CN1C(=O)[C@](CC(=O)Nc2ccc(C)cc2)(NC(=O)Nc2ccc(C)cc2)c2ccccc21)OCC
- cell viability [1]: 109%
- cell viability [2]: 112%
- cell viability [3]: 125%
- cell viability [4]: 113%
- cell viability [5]: 123%
- cell viability [6]: 122%
- cell viability [7]: 126%
- cell viability [8]: 124%
- cell viability [9]: 106%
- cell viability [10]: 83.8%
- cell viability [11]: 70.7%
- cell viability [12]: 110%
- cell viability [13]: 107%
- cell viability [14]: 106%
- cell viability [15]: 107%
- cell viability [16]: 113%
- cell viability [17]: 104%
- cell viability [18]: 123%
- cell viability [19]: 125%
- cell viability [20]: 113%
- cell viability [21]: 103%
- cell viability [22]: 49.8%
- cell viability [23]: 99.2%
- cell viability [24]: 101%
- cell viability [25]: 105%
- cell viability [26]: 99.8%
- cell viability [27]: 114%
- cell viability [28]: 115%
- cell viability [29]: 109%
- cell viability [30]: 115%
- cell viability [31]: 99.3%
- cell viability [32]: 93%
- cell viability [33]: 60.3%

Structure (SMILES): O=C(Nc1ccc([N+](=O)[O-])cc1Cl)c1cc(Cl)ccc1O
- cell viability [1]: 103%
- cell viability [2]: 94.9%
- cell viability [3]: 99.2%
- cell viability [4]: 107%
- cell viability [5]: 98.7%
- cell viability [6]: 120%
- cell viability [7]: 111%
- cell viability [8]: 57.4%
- cell viability [9]: 30%
- cell viability [10]: 40.3%
- cell viability [11]: 31.7%
- cell viability [12]: 85.1%
- cell viability [13]: 86.4%
- cell viability [14]: 84.1%
- cell viability [15]: 93%
- cell viability [16]: 94.5%
- cell viability [17]: 89.1%
- cell viability [18]: 82.7%
- cell viability [19]: 62.3%
- cell viability [20]: 32.5%
- cell viability [21]: 72.8%
- cell viability [22]: 48.7%
- cell viability [23]: 88.8%
- cell viability [24]: 94.3%
- cell viability [25]: 91.3%
- cell viability [26]: 90.9%
- cell viability [27]: 103%
- cell viability [28]: 96.4%
- cell viability [29]: 101%
- cell viability [30]: 50.8%
- cell viability [31]: 34.6%
- cell viability [32]: 50.9%
- cell viability [33]: 47.9%

Structure (SMILES): CN(CCOc1ccc(NS(C)(=O)=O)cc1)CCc1ccc(NS(C)(=O)=O)cc1
- cell viability [1]: 108%
- cell viability [2]: 126%
- cell viability [3]: 110%
- cell viability [4]: 116%
- cell viability [5]: 136%
- cell viability [6]: 138%
- cell viability [7]: 147%
- cell viability [8]: 133%
- cell viability [9]: 131%
- cell viability [10]: 135%
- cell viability [11]: 134%
- cell viability [12]: 121%
- cell viability [13]: 119%
- cell viability [14]: 109%
- cell viability [15]: 129%
- cell viability [16]: 117%
- cell viability [17]: 120%
- cell viability [18]: 135%
- cell viability [19]: 120%
- cell viability [20]: 141%
- cell viability [21]: 118%
- cell viability [22]: 136%

Structure (SMILES): CCC(=O)OC1CCC2C3CCC/4=C/C(=O)CC[C@@]4(C)C3CC[C@]12C (some centres undefined)
- cell viability [1]: 89.8%
- cell viability [2]: 112%
- cell viability [3]: 128%
- cell viability [4]: 120%
- cell viability [5]: 122%
- cell viability [6]: 118%
- cell viability [7]: 130%
- cell viability [8]: 136%
- cell viability [9]: 136%
- cell viability [10]: 129%
- cell viability [11]: 135%

Structure (SMILES): CN[C@H]1[C@H](O[C@@H]2[C@H](O[C@@H]3[C@@H](O)[C@@H](O)[C@@H](NC(=N)N)[C@@H](O)[C@H]3NC(=N)N)O[C@H](C)[C@@]2(O)C=O)O[C@@H](CO)[C@@H](O)[C@H]1O
- cell viability [1]: 117%
- cell viability [2]: 115%
- cell viability [3]: 118%
- cell viability [4]: 111%
- cell viability [5]: 130%
- cell viability [6]: 120%
- cell viability [7]: 101%
- cell viability [8]: 96.1%
- cell viability [9]: 89%
- cell viability [10]: 66.9%
- cell viability [11]: 23.7%
- cell viability [12]: 109%
- cell viability [13]: 113%
- cell viability [14]: 112%
- cell viability [15]: 109%
- cell viability [16]: 112%
- cell viability [17]: 104%
- cell viability [18]: 103%
- cell viability [19]: 111%
- cell viability [20]: 96.6%
- cell viability [21]: 101%
- cell viability [22]: 26.1%
- cell viability [23]: 106%
- cell viability [24]: 107%
- cell viability [25]: 103%
- cell viability [26]: 113%
- cell viability [27]: 114%
- cell viability [28]: 105%
- cell viability [29]: 102%
- cell viability [30]: 109%
- cell viability [31]: 105%
- cell viability [32]: 87.1%
- cell viability [33]: 26.2%

Structure (SMILES): CCOc1cc(/C=C2/C(=O)N(c3ccccc3)N=C2C)cc(Cl)c1OCC(=O)OC
- cell viability [1]: 86.1%
- cell viability [2]: 92.5%
- cell viability [3]: 93%
- cell viability [4]: 93.5%
- cell viability [5]: 84.4%
- cell viability [6]: 95.5%
- cell viability [7]: 101%
- cell viability [8]: 96.3%
- cell viability [9]: 87.5%
- cell viability [10]: 77.6%
- cell viability [11]: 85.1%
- cell viability [12]: 81.8%
- cell viability [13]: 80.8%
- cell viability [14]: 82.1%
- cell viability [15]: 89.2%
- cell viability [16]: 93.6%
- cell viability [17]: 89.5%
- cell viability [18]: 93.3%
- cell viability [19]: 88.4%
- cell viability [20]: 78.4%
- cell viability [21]: 91.8%
- cell viability [22]: 83%
- cell viability [23]: 89.2%
- cell viability [24]: 88.5%
- cell viability [25]: 94.9%
- cell viability [26]: 85.5%
- cell viability [27]: 92.6%
- cell viability [28]: 102%
- cell viability [29]: 85%
- cell viability [30]: 82.8%
- cell viability [31]: 86.7%
- cell viability [32]: 84.6%
- cell viability [33]: 87.5%

Structure (SMILES): Cc1cc(SCc2sc(-c3ccc(C(F)(F)F)cc3)nc2C)ccc1OCC(=O)O
- cell viability [1]: 102%
- cell viability [2]: 113%
- cell viability [3]: 97.5%
- cell viability [4]: 124%
- cell viability [5]: 109%
- cell viability [6]: 110%
- cell viability [7]: 104%
- cell viability [8]: 92.3%
- cell viability [9]: 102%
- cell viability [10]: 94.8%
- cell viability [11]: 78.1%
- cell viability [12]: 100%
- cell viability [13]: 97.1%
- cell viability [14]: 85.9%
- cell viability [15]: 99.1%
- cell viability [16]: 90.3%
- cell viability [17]: 95%
- cell viability [18]: 90.7%
- cell viability [19]: 102%
- cell viability [20]: 86.6%
- cell viability [21]: 91.4%
- cell viability [22]: 81.9%
- cell viability [23]: 93.2%
- cell viability [24]: 95.1%
- cell viability [25]: 101%
- cell viability [26]: 108%
- cell viability [27]: 92.2%
- cell viability [28]: 102%
- cell viability [29]: 99.6%
- cell viability [30]: 97.7%
- cell viability [31]: 101%
- cell viability [32]: 89.2%
- cell viability [33]: 83.1%

Structure (SMILES): CO[C@@H]1[C@@H](OC(N)=O)[C@@H](O)[C@H](OC2=CC=C3\C(=C(NC(=O)C4=CC=C([O-])C(=C4)CC=C(C)C)/C(=O)OC3=C2C)O)OC1(C)C
- cell viability [1]: 110%
- cell viability [2]: 111%
- cell viability [3]: 122%
- cell viability [4]: 114%
- cell viability [5]: 109%
- cell viability [6]: 120%
- cell viability [7]: 101%
- cell viability [8]: 91.9%
- cell viability [9]: 93.2%
- cell viability [10]: 87%
- cell viability [11]: 31.8%
- cell viability [12]: 91.4%
- cell viability [13]: 101%
- cell viability [14]: 96.6%
- cell viability [15]: 98.1%
- cell viability [16]: 111%
- cell viability [17]: 102%
- cell viability [18]: 116%
- cell viability [19]: 110%
- cell viability [20]: 101%
- cell viability [21]: 86.6%
- cell viability [22]: 26.2%
- cell viability [23]: 114%
- cell viability [24]: 118%
- cell viability [25]: 116%
- cell viability [26]: 118%
- cell viability [27]: 113%
- cell viability [28]: 97.5%
- cell viability [29]: 117%
- cell viability [30]: 120%
- cell viability [31]: 88.5%
- cell viability [32]: 83.9%
- cell viability [33]: 35.9%
